Test [1] deals with Sweetpotato Whitefly-Crawler (Bemisia tabaci). Description: Insecticidal test for Sweetpotato Whitefly-Crawler (WF) (BEMITA) in foliar spray assay on cotton plants. It counts as in vivo. The settings on record: 216 h, 200 ppm foliar spray, graded after 9 days, Abbott corrected % control, read-out: % Control (or Mortality) rating, WF. How it is done:
Cotton plants (Gossypium hirsutum) grown in 3-inch pots, with 1 small (4-5 cm) true leaves, were used as test substrate. The plants were infested with 200-400 whitefly eggs 4-5 days prior to chemical application. Four pots with individual plants were used for each treatment. Test compounds (2 mg) were dissolved in 1 mL of acetone solvent, forming stock solutions of 2000 ppm test compound. The stock solutions were diluted 10× with 0.025% Tween 20 in H2O (diluents) to obtain the solution at 200 ppm test compound. A hand-held aspirator-type sprayer was used for spraying a solution to both sides of cotton leaves until runoff. Reference plants (solvent check) were sprayed with the diluent only containing 10% by volume of acetone solvent. Treated plants were held in a holding room for 9 days at approximately 25° C. and ambient relative humidity (RH) prior to grading. Evaluation was conducted by counting the number of live 3-4 nymph stage per plant under a microscope. Percent control was measured by using Abbott's correction formula (W. S. Abbott, “A Method of Computing the Effectiveness of an Insecticide,” J. Econ. Entomol. 18 (1925), pp. 265-267) as follows. Corrected % Control=100*(X−Y)/X
X=No. of live nymphs on solvent check plants and
Y=No. of live nymphs on treated plants.
(§1) Biological Data for Green Peach Aphid (GPA) (MYZUPE) and Sweetpotato Whitefly-crawler (WF) (BEMITA)” (See Table Section).

Test [2] relates to Green Peach Aphid (Myzus persicae). Description: Bioassay for Green Peach Aphid (GPA) (MYZUPE), foliar spray on cabbage seedlings. It counts as in vivo. Conditions: 72 h, 200 ppm foliar spray, graded after three days, Abbott corrected % control, read-out: % Control (or Mortality) rating, GPA. How it is done:
Cabbage seedlings grown in 3-inch pots, with 2-3 small (3-5 cm) true leaves, were used as test substrate. The seedlings were infested with 20-50 GPA (wingless adult and nymph stages) one day prior to chemical application. Four pots with individual seedlings were used for each treatment. Test compounds (2 mg) were dissolved in 2 mL of acetone/methanol (1:1) solvent, forming stock solutions of 1000 ppm test compound. The stock solutions were diluted 5× with 0.025% Tween 20 in H2O to obtain the solution at 200 ppm test compound. A hand-held aspirator-type sprayer was used for spraying a solution to both sides of […] leaves until runoff. Reference plants (solvent check) were sprayed with the diluent only containing 20% by volume of acetone/methanol (1:1) solvent. Treated plants were held in a holding room for three days at approximately 25° C. and ambient relative humidity (RH) prior to grading. Evaluation was conducted by counting the number of live aphids per plant under a microscope. Percent control was measured by using Abbott's correction formula (W. S. Abbott, “A Method of Computing the Effectiveness of an Insecticide,” J. Econ. Entomol. 18 (1925), pp. 265-267) as follows. Corrected % Control=100*(X−Y)/X
X=No. of live aphids on solvent check plants and
Y=No. of live aphids on treated plants
as §1

As for `C#CCNc1cn(-c2ccc[n+]([O-])c2)nc1Cl` [CA1, 3-(3-Chloro-4-(prop-2-yn-1-ylamino)-1H-pyrazol-1-yl)pyridine 1-oxide], the mortality at 200 ppm in test [1] and in test [2] was 0 to 80% throughout.

`CCNc1cn(-c2ccc[n+]([O-])c2)nc1C` [CA2, 3-(4-(Ethylamino)-3-methyl-1H-pyrazol-1-yl)pyridine 1-oxide]: the mortality (commonly the share of the test organisms that died) at 200 ppm in test [1] lay within 80 to 100%; in test [2], 0 to 80%.

Regarding `CNc1cn(-c2ccc[n+]([O-])c2)nc1Cl` [CA3, 3-(3-Chloro-4-(methylamino)-1H-pyrazol-1-yl)pyridine 1-oxide], the results for the mortality at 200 ppm in test [1] and in test [2] were 0 to 80% and 80 to 100%, respectively.

In the case of `CCNc1cn(-c2cc(F)c[n+]([O-])c2)nc1Cl` [CA4, 3-(3-Chloro-4-(ethylamino)-1H-pyrazol-1-yl)-5-fluoropyridine 1-oxide], the mortality at 200 ppm in test [1] and in test [2] was 0 to 80% in each case.

`CCNc1cn(-c2ccc[n+]([O-])c2)nc1Cl` [Compound C1, 3-(3-chloro-4-(ethylamino)-1H-pyrazol-1-yl)pyridine 1-oxide]: the mortality at 200 ppm in test [1] and in test [2] was 0 to 80% throughout.

Take `CCN(C(=O)CC[S+]([O-])CCC(F)(F)F)c1cn(-c2ccc[n+]([O-])c2)nc1Cl` (centres unmarked) [Compound F1, 3-(3-chloro-4-(N-ethyl-3-((3,3,3-trifluoropropyl)sulfinyl)propanamido)-1H-pyrazol-1-yl)pyridine 1-oxide]: the mortality at 200 ppm in test [1] and in test [2] was 80 to 100% in each case.

Regarding `CCN(C(=O)CCSC)c1cn(-c2ccc[n+]([O-])c2)nc1Cl` [Compound F2, 3-(3-Chloro-4-(N-ethyl-3-(methylthio)propanamido)-1H-pyrazol-1-yl) pyridine 1-oxide], the mortality at 200 ppm in test [1] and in test [2] was 80 to 100% each time.

Take `CCN(C(=O)C(C)CS(C)(=O)=O)c1cn(-c2ccc[n+]([O-])c2)nc1C` (centres unmarked) [Compound F4, 3-(4-(N-ethyl-2-methyl-3-(methylsulfonyl)propanamido)-3-methyl-1H-pyrazol-1-yl)pyridine-1-oxide]: the mortality at 200 ppm in test [1] and in test [2] was 80 to 100% in each case.

On to `CCN(C(=O)CCSCCC(F)(F)F)c1cn(-c2ccc[n+]([O-])c2)nc1Cl` [Compound F5, 3-(3-chloro-4-(N-ethyl-3-((3,3,3-trifluoropropyl)thio)propanamido)-1H-pyrazol-1-yl)pyridine 1-oxide], for which the mortality at 200 ppm in test [1] and in test [2] was 80 to 100% each time.

`CCN(C(=O)C(C)C[S+](C)[O-])c1cn(-c2ccc[n+]([O-])c2)nc1Cl` (centres unmarked) [Compound F6]: the mortality at 200 ppm in test [1] and in test [2] was 80 to 100% in each case.

In the case of `CCN(C(=O)C(C)[S+]([O-])CC(F)(F)F)c1cn(-c2ccc[n+]([O-])c2)nc1Cl` (centres unmarked) [Compound F7, 3-(3-Chloro-4-(N-ethyl-2-((2,2,2-trifluoroethyl)sulfinyl)propanamido)-1H-pyrazol-1-yl)pyridine 1-oxide], the mortality at 200 ppm in test [1] fell in the range of 0 to 80%; in test [2], 80 to 100%.

`CCN(C(=O)C(C)S(=O)(=O)CC(F)(F)F)c1cn(-c2ccc[n+]([O-])c2)nc1Cl` (centres unmarked) [Compound F8, 3-(3-Chloro-4-(N-ethyl-2-((2,2,2-trifluoroethyl)sulfonyl)propanamido)-1H-pyrazol-1-yl)pyridine 1-oxide]: the mortality at 200 ppm in test [1] and in test [2] was 80 to 100% in each case.

For `CCN(C(=O)CC[S+](C)[O-])c1cn(-c2ccc[n+]([O-])c2)nc1Cl` (centres unmarked) [Compound F9, 3-(3-Chloro-4-(N-ethyl-3-(methylsulfinyl)propanamido)-1H-pyrazol-1-yl) pyridine 1-oxide], the mortality at 200 ppm in test [1] and in test [2] was 80 to 100% throughout.

As to `CCN(C(=O)C(C)CSC)c1cn(-c2ccc[n+]([O-])c2)nc1Cl` (centres unmarked) [Compound F10, 3-(3-Chloro-4-(N-ethyl-2-methyl-3-(methylthio)propajamido)-1H-pyrazol-1-yl)pyridine 1-oxide], the mortality at 200 ppm in test [1] and in test [2] was 80 to 100% in each case.

As for `CCN(C(=O)CCS(=O)(=O)CC1CC1(F)F)c1cn(-c2ccc[n+]([O-])c2)nc1Cl` (centres unmarked) [Compound F11], the mortality at 200 ppm in test [1] and in test [2] was 80 to 100% in each case.

As to `CCN(C(=O)C(C)CS(C)(=O)=O)c1cn(-c2ccc[n+]([O-])c2)nc1Cl` (centres unmarked) [Compound F12, 3-(3-Chloro-4-(N-ethyl-2-methyl-3-(methylsulfonyl)propanamido)-1H-pyrazol-1-yl) 1-oxide], the mortality at 200 ppm in test [1] and in test [2] was 80 to 100% each time.

Take `CCN(C(=O)CCS(=O)(=O)CCC(F)(F)F)c1cn(-c2ccc[n+]([O-])c2)nc1Cl` [Compound F13, 3-(3-chloro-4-(N-ethyl-3-((3,3,3-trifluoropropyl)sulfonyl)propanamido)-1H-pyrazol-1-yl)pyridine 1-oxide]: the mortality at 200 ppm in test [1] and in test [2] was 80 to 100% throughout.

Consider `CN(C(=O)CCSCCC(F)(F)F)c1cn(-c2ccc[n+]([O-])c2)nc1Cl` [Compound P1, 3-(3-chloro-4-(N-methyl-3-((3,3,3-trifluoropropyl)thio)propanamido)-1H-pyrazol-1-yl)pyridine 1-oxide], for which the mortality at 200 ppm in test [1] and in test [2] was 80 to 100% each time.

For the compound `CN(C(=O)CC[S+]([O-])CCC(F)(F)F)c1cn(-c2ccc[n+]([O-])c2)nc1Cl` (centres unmarked) [Compound P2, 3-(3-chloro-4-(N-methyl-3-((3,3,3-trifluoropropyl)sulfinyl)propanamido)-1H-pyrazol-1-yl)pyridine 1-oxide], the mortality at 200 ppm in test [1] and in test [2] was 80 to 100% throughout.

As for `C#CCN(C(=O)CCSCCC(F)(F)F)c1cn(-c2ccc[n+]([O-])c2)nc1Cl` [Compound P9, 3-(3-Chloro-4-(N-(prop-2-yn-1-yl)-3-((3,3,3-trifluoropropyl)thio)propanamido)-1H-pyrazol-1-yl)pyridine 1-oxide], the mortality at 200 ppm in test [1] and in test [2] was 80 to 100% each time.

As for `C#CCN(C(=O)CC[S+]([O-])CCC(F)(F)F)c1cn(-c2ccc[n+]([O-])c2)nc1Cl` (centres unmarked) [Compound P10, 3-(3-chloro-4-(N-(prop-2-yn-1-yl)-3-((3,3,3-trifluoropropyl)sulfinyl)propanamido)-1H-pyrazol-1-yl)pyridine 1-oxide], the mortality at 200 ppm in test [1] and in test [2] was 80 to 100% in each case.

Consider `CCN(C(=O)CCSCCC(F)(F)F)c1cn(-c2ccc[n+]([O-])c2)nc1C` [Compound P18, 3-(4-(N-Ethyl-3-((3,3,3-trilluoropropyl)thio)propanamido)-3-methyl-1H-pyrazol-1-yl)pyridine 1-oxide], for which the mortality at 200 ppm in test [1] and in test [2] was 80 to 100% each time.

Take `CCN(C(=O)CC[S+]([O-])CCC(F)(F)F)c1cn(-c2ccc[n+]([O-])c2)nc1C` (centres unmarked) [Compound P19, 3-(4-(N-Ethyl-3-((3,3,3-trilluoropropyl)sulfinyl)propanamido)-3-methyl-1H-pyrazol-1-yl)pyridine 1-oxide]: the mortality at 200 ppm in test [1] and in test [2] was 80 to 100% each time.

On to `CCN(C(=O)CCSCCC(F)(F)F)c1cn(-c2cc(F)c[n+]([O-])c2)nc1Cl` [Compound P36, 3-(3-Chloro-4-(N-ethyl-3-((3,3,3-trilluoropropyl)thio)propanamido)-1H-pyrazol-1-yl)-5-fluoropyridine 1-oxide], for which the mortality at 200 ppm in test [1] and in test [2] was 80 to 100% throughout.

As to `CCN(C(=O)C(C)S(C)(=O)=O)c1cn(-c2ccc[n+]([O-])c2)nc1Cl` (centres unmarked) [FA13, 3-(3-chloro-4-(N-ethyl-2-(methylsulfonyl)propanamido)-1H-pyrazol-1-yl)pyridine 1-oxide], the mortality at 200 ppm in test [2] lay in the range of 80 to 100%.

Take `CC(C(=O)N(CC1CC1)c1cn(-c2ccc[n+]([O-])c2)nc1Cl)S(C)(=O)=O` (centres unmarked) [FA14, 3-(3-chloro-4-(N-(cyclopropylmethyl)-2-(methylsulfonyl)propanamido)-1H-pyrazol-1-yl)pyridine 1-oxide]: the mortality at 200 ppm in test [2] was 80 to 100%.

These data come from patent US9549560B2, “Pesticidal compositions and related methods” (DOW AGROSCIENCES LLC, priority 2013, dated 2017).
